Values of other authors in US8883786B2, “Glucocorticoid receptor antagonists” (Hoffmann-La Roche Inc., priority 2007, dated 2014).

Key:
[1] = long term treatment (up to 1 year)
gluconeogenic enzymes = details: db/db mice
ob/ob mice = details: leptin deficient ob/ob mice
[2] = clinical administration, acute, normal volunteers
[3] = tested on: Hypothalamus-Pituitary gland-Adrenal gland (HPA) axis; details: HPA axis stimulation via feed-back mechanism
[4] = clinical administration, chronic, Cushing's patients

**Q.** With `CC#C[C@]1(O)CC[C@H]2[C@@H]3CCC4=CC(=O)CCC4=C3[C@@H](c3ccc(N(C)C)cc3)C[C@@]21C` [RU486/mifepristone, mifepristone] as the compound, how does the adrenal insufficiency symptoms [1] read?
**A.** induces some adrenal insufficiency symptoms

**Q.** What about the “activity of gluconeogenic enzymes” value (gluconeogenic enzymes) of the same compound?
**A.** normalizes

**Q.** What about the fasting plasma glucose (ob/ob mice) of the same compound?
**A.** normalizes fasting plasma glucose

**Q.** And the fasting plasma glucose [2]?
**A.** decrease of fasting plasma glucose

**Q.** And the “endogenous corticosteroids circulating in the blood” value [3]?
**A.** increase of endogenous corticosteroids circulating in the blood

**Q.** And the “plasmatic HbA1c” value [4]?
**A.** decrease of plasmatic HbA1c
